Like-named read-outs stand apart in the source and are kept apart here.
Legend:
P. aeruginosa PA14 [1] = experiment: Crystal violet biofilm formation assay / minimum biofilm inhibition concentration; type: cell-based, Pseudomonas aeruginosa
Description: (§1) Biofilm formation is linked to 80% of hospital-associated infections and is a major factor in the routine failure of antibiotic therapy.
(§2) All samples were exposed to the artificial sweeteners in LB medium for 19 hours before crystal violet biofilm assay was performed. […] The data present the mean of three biological replicates±SD. *p≤0.05, *p≤0.001 versus the bacterial growth in control samples.
(§3) All samples were exposed to artificial sweeteners for 19 hours before crystal violet biofilm assay was performed.

Enterococcus faecalis = conditions: […] ace-K versus LB control
A. baumannii [2] = test system: A. baumannii
From the text: Motility is a central facet of bacterial virulence and facilitates bacterial dissemination to the blood stream or other sites within an infected host. […] To validate the gene expression data, we performed twitching assays at a range of different concentrations.

A. baumannii cells = conditions: live cell imaging over time
From the text: (§4) To visualise the localisation of these membrane bulges and to gain insight into the contents of the bulges, an E. coli MG1655 strain with labelled mCherry-Fis and CFP-FtsZ was used (FIG. 62CD). Fis is a small DNA-binding protein that binds to a large number of regions of the chromosome, allowing the visualisation of the […] in living cells. FtsZ is a component of the Z ring, showing future cell division sites.

E. coli NCTC 13476 = conditions: live cell imaging over time
From the text: as §4

[3] = test system: P. aeruginosa colony biofilms
[4] = test system: A. baumannii gene expression; conditions: |logFC|>1 and p<.05
Description: Cells were spun down and washed in RNAlater to preserve mRNA. RNA was isolated using a Qiagen RNAeasy Kit with column DNAase digestion. RNA integrity was determined using a Bioanalyzer. Samples were further processed for RNA sequencing on an Illumina MiSeq with 12 million reads per sample. Quality control and adapter trimming was performed with bcl2fastq.

A. baumannii AB5075 [5] = test system: A. baumannii AB5075
[6] = test system: Stenotrophomonas maltophilia
PpilA promoter = conditions: 0, […], 0.66% or […] ace-K, 2 h
Description: The expression from the PpilA promoter was measured using a miniTn7T-based insertion bearing a PpilA::gfp transcriptional fusion (AB5075/miniTn7T-zeo-pilA::gfpmut3). An AB5075/miniTn7T-zeo-gfpmut3 strain, bearing the empty miniTn7T backbone, was used as a control. […] Cultures were incubated for 2 h at 37° C., 180 rpm. Then, samples were withdrawn from the cultures, washed with PBS and eventually resuspended in PBS. Two technical repeats of each sample were allocated in a 96-well plate and their OD600 and GFP fluorescence (485 nm excitation, 535 nm emission) were measured. The fluorescence readings were normalised by their respective OD600 and the baseline fluorescence obtained from the empty transposon control was subtracted from that obtained with the strain bearing the PpilA::gfpmut3 the promoter fusion measurements.

A. baumannii AB5075 [7] = test system: A. baumannii AB5075; design: species or system Acinetobacter baumannii; conditions: ace-K dressing applied for 1 hour
Description: In this model, porcine skin was either burnt or lacerated and the wound infected with A. baumannii AB5075 and left for 3.5 hours to allow a biofilm to form. The dressing was applied for 1 hour and viable cells were collected after treatment. […] Samples were tested in biological triplicate with technical quadruplets.
(8% (w/w)), potassium tetraborate (3% (w/w)), and PVA (3% ((w/w)) were added into a beaker and mixed with deionized water. The mixture was placed in a water bath and heated at 80° C. for three hours with watch glass while being swirled with a stirring rod every 1 hour. Once hydrogels had been obtained, they were placed in a petri dish with custom-made moulds.

[8] = test system: A. baumannii colony biofilms
A. baumannii [9] = experiment: Crystal violet biofilm formation assay / minimum biofilm inhibition concentration; type: cell-based, Acinetobacter baumannii
Description: as §1, §2, §3

A. baumannii AB5075 [10] = conditions: […] ace-K (sub-MIC), two hours, compared to untreated control
Description: Cultures were incubated at 37° C. and 180 rpm shaking for two hours. Following incubation 10 μL of a 1 mg/mL DAPI solution and 10 μL of a 5 mg/mL solution of Nile Red were added to each flask before returning to the incubator for 30 mins. Once stained, cultures were centrifuged at 5000 rpm for five minutes and the supernatant discarded. Pellets were resuspended in 10 ml of sterile 4% formaldehyde in PBS and incubated in the dark for 30 mins to fix. Once fixed, samples were centrifuged at 5000 rpm and pellets were washed twice with 10 mL sterile PBS. After washing pellets were resuspended in 10 ml of sterile PBS and 10 μL of the cell suspension was spotted onto a glass slide and allowed to air dry in the dark. Three spots were prepared per flask.

P. aeruginosa PA14 [11] = experiment: Growth inhibition assay in nutrient medium (OD600); type: cell-based, Pseudomonas aeruginosa
Staphylococcus aureus = conditions: […] ace-K versus LB control
A. baumannii AB5075 [12] = experiment: Growth inhibition assay in LB medium (OD600); type: cell-based, Acinetobacter baumannii
P. aeruginosa PA14 [13] = conditions: established 18 hour biofilm, 8.85% ace-K, 24 hours
Description: (§5) Plates were incubated for 18 hours at 37° C. and 180 rpm to allow biofilms to form. Following incubation, growth medium was removed from the wells and biofilms were washed three times with 200 μL of sterile PBS to remove any unbound planktonic cells. […] Plates were incubated for a further 24 hours at 37° C. and 180 rpm. Following this treatment biofilms were stained with 0.1% crystal violet as detailed above. Reduction in biofilm was represented as a percentage reduction compared to the control.
(§6) To assess the ability of artificial sweeteners to disperse biofilms, overnight cultures were diluted in 96-well plates to OD600 0.5-0.1 in growth medium. Plates were incubated for 18 h at 37° C. and 180 rpm to allow biofilms to form. Following incubation growth medium was removed and wells washed three times with 200 μl of sterile PBS to remove any unattached cells. Fresh growth medium supplemented with artificial sweetener or an appropriate vehicle control was added to the wells. Plates were incubated for a further 24 h at 37° C. and 180 rpm. Following this treatment biofilms were stained with 0.1% crystal violet as detailed above. Biofilm dispersal was represented as a percentage reduction compared with the control.

A. baumannii AB5075 [14] = conditions: established 18 hour biofilm, 8.85% ace-K, 24 hours
Description: as §5, §6

[15] = LB with ace-K plus Mg2+ and Ca2+
[16] = 3% (w/v) sucralose, […] (w/v) ace-K, LB medium, 19 hours
[17] = submerged in 8.85% (w/v) ace-K solution for 1 hour
[18] = surgical gauze soaked in 8.85% ace-K, 1 hour, compared to water-soaked dressing
[19] = in the presence of divalent cations (CaCl2 2 mM and MgSO4 1 mM)
[20] = LB with sweetener plus Mg2+ and Ca2+

From the text for Klebsiella pneumoniae: N=3 biological triplicate, each with technical triplicates).

Q: Which results are given for `CC1=CC(=O)[N-]S(=O)(=O)O1.[K+]` [ace-K, potassium salt of 6-methyl-1,2,3-oxathiazine-4 (3H)-one 2,2-dioxide]?
A: effect of Mg2+ and Ca2+ cation supplementation on the growth inhibitory effect (E. coli; [15]): at least partially reverse; growth in LB including ace-K (E. coli; […] ace-K versus LB control): significantly inhibits the growth; effect of Mg2+ and Ca2+ cation supplementation on the growth inhibitory effect (Enterobacter cloacae; [15]): at least partially reverse; growth in LB including ace-K (Enterobacter cloacae; […] ace-K versus LB control): significantly inhibits the growth; effect of Mg2+ and Ca2+ cation supplementation on the growth inhibitory effect (Klebsiella pneumoniae; [15]): at least partially reverse; growth in LB including ace-K (Klebsiella pneumoniae; […] ace-K versus LB control): significantly inhibits the growth; biofilm formation (P. aeruginosa PA14 [1]; [16]): significantly inhibit biofilm formation; concentration resulting in almost complete abolition of biofilm formation (P. aeruginosa PA14 [1]; 19 hours exposure): 1.77%; growth in LB including ace-K (Enterococcus faecalis): significantly inhibits the growth; concentration with significant reduction in bacterial twitching motility (A. baumannii [2]): ≥ 0.33%; twitching motility over increasing concentrations (A. baumannii [2]; AB5075, ace-K): dose-dependent decrease; twitching motility over increasing concentrations (A. baumannii [2]; strains AB0057 and BAA 747, ace-K): dose-dependent decrease; cell morphology upon ace-K exposure (A. baumannii cells): stop dividing and lose structural integrity, swelling in size rapidly; cell morphology upon ace-K exposure (E. coli NCTC 13476): filamented, extending to many times their original size before eventually, forming characteristic membrane bulges and ultimately lysing; number of viable bacteria within the biofilm after ace-K wash [3, 17]: significant reduction; bacteria numbers after ace-K augmented dressing [3, 18]: significant reductions; number of genes significantly differentially expressed [4]: 464 genes; cell viability (A. baumannii AB5075 [5]; in the presence of cations when supplementing with ace-K): not affected; concentration reaching transformation abolition (A. baumannii AB5075 [5]; [19]): ≥ 0.66%; concentration with significant drop in transformability (A. baumannii AB5075 [5]; [19]): 0.33%; concentration at which transformation is completely abolished (A. baumannii AB5075 [5]; without added cations): ≥ 0.66%; effect of Mg2+ and Ca2+ cation supplementation on the growth inhibitory effect [6, 15]: at least partially reverse; growth in LB including ace-K ([6]; […] ace-K versus LB control): significantly inhibits the growth; pilA expression (GFP fluorescence normalised by OD600) (PpilA promoter): clear dose dependent response; log reduction in viable cells versus the water control (A. baumannii AB5075 [7]; burn model): 2.16 log; log reduction in viable cells versus the water control (A. baumannii AB5075 [7]; laceration model): 0.5 log; number of viable bacteria within the biofilm after ace-K wash [8, 17]: significant reduction; bacteria numbers after ace-K augmented dressing [8, 18]: significant reductions; concentration with significant impact on / inhibition of biofilm formation (A. baumannii [9]): 0.09%; biofilm formation (A. baumannii [9]; [16]): significantly inhibit biofilm formation; nuclear dye uptake (A. baumannii AB5075 [10]): significant increases; concentration showing significant / effective growth inhibition (P. aeruginosa PA14 [11]): ≥ 0.89%; effect of Mg2+ and Ca2+ cation supplementation on the growth inhibitory effect (P. aeruginosa PA14 [11]; [20]): at least partially reverse; bacterial growth in the presence of sweetener (P. aeruginosa PA14 [11]; […] sweetener, 19 hours, 37° C.): inhibit the growth; concentration at which growth inhibition plateaus; no growth above (P. aeruginosa PA14 [11]; ace-K 0.09-7.08%): around 5%; growth in LB including ace-K (Staphylococcus aureus): minor reduction in growth in the presence of ace-K, but this was not significant; concentration showing significant / effective growth inhibition (A. baumannii AB5075 [12]): ≥ 0.89%; effect of Mg2+ and Ca2+ cation supplementation on the growth inhibitory effect (A. baumannii AB5075 [12]; [20]): at least partially reverse; bacterial growth in the presence of sweetener (A. baumannii AB5075 [12]; […] sweetener, 19 hours, LB medium): inhibit the growth; concentration at which growth inhibition plateaus; no growth above (A. baumannii AB5075 [12]; ace-K 0.09-7.08%): around 5%; reduction of total biofilm biomass compared to the control (P. aeruginosa PA14 [13]): 69.7%; reduction of total biofilm biomass compared to the control (A. baumannii AB5075 [14]): 48.8%

Source: patent publication US20260076974A1, “COMPOSITIONS FOR PREVENTING AND TREATING INFECTION COMPRISING AN ARTIFICIAL SWEETENER” (Brunel University London, priority 2022, published 2026)
